US20080175888A1, “Combination Therapy Comprising Actinidia and Steroids and Uses Thereof” (priority 2005, published 2008)

Test system: production of IL-13 and IFN-γ by OVA-stimulated mouse splenocytes
Assay: Cytokine production in OVA-stimulated splenocyte cultures, ELISA (Example 3)
Type: cell-based
Conditions: 3 days exposure in vitro, FIG. 5A/5B
Protocol: The purpose of this study was to assess the ability of A. arguta extracts that originate from plant parts other than the fruit, or from alternative preparations of the fruit (i.e., other than the extracts described in U.S. Patent Publication No. 2004/0037909, supra), to modulate cytokine production (IL-13 and IFNγ) in splenocyte cultures derived from ovalbumin-sensitized mice, using ELISA analysis. The following samples (prepared as described above) were tested: water extracts of the stem, root, and bark of A. arguta, prepared as described in Example 1; “boiled” fresh fruit preparations; the fruit juice concentrate prepared as described in Example 1; FD001 (large scale equivalent of PG102T) prepared as described in Example 1; FD001 powder prepared as described in Example 1 (used for clinical trials described below); a room temperature water extract of the dried A. arguta fruit; the EtOAc extract prepared as described in Example 1; and aqueous remainder, also described in Example 1. In addition, the activity of three known immunosuppressive compounds, cyclosporin, dexamethasone, and quercetin were evaluated as controls.
Preparation of the splenocytes was performed in a manner identical to that described above for Example 2. […]
The cytokine levels in the culture supernatants from all treatment and control wells were determined by ELISA assay. […]

SMILES: O=c1c(O)c(-c2ccc(O)c(O)c2)oc2cc(O)cc(O)c12 [quercetin]
- concentration of potent activity (suppression of IL-13 and IFN-γ): 1 to 25 µM
